Test results taken from US10844077B2, “Thiazolyl-containing compounds for treating proliferative diseases” (Dana-Farber Cancer Institute, Inc., priority 2014, dated 2020).

Assays:
Type in all cases: binding
[1] = target: broad panel of kinases (Homo sapiens, UniProt O00750); conditions: PIK3C2B; 1 μM
[2] = target: broad panel of kinases (Homo sapiens, UniProt O14920); conditions: IKK-beta; 1 μM
[3] = target: broad panel of kinases (Homo sapiens, UniProt O14936); conditions: CASK; 1 μM
[4] = target: broad panel of kinases (Homo sapiens, UniProt O94768); conditions: DRAK2; 1 μM
[5] = target: broad panel of kinases (Homo sapiens, UniProt P00533, G719C); conditions: EGFR(G719C); 1 μM
[6] = target: broad panel of kinases (Homo sapiens, UniProt P04629); conditions: TRKA; 1 μM
[7] = target: broad panel of kinases (Homo sapiens, UniProt P07947); conditions: YES; 1 μM
[8] = target: broad panel of kinases (Homo sapiens, UniProt P21860); conditions: ERBB3; 1 μM
[9] = target: broad panel of kinases (Homo sapiens, UniProt P36888, K663Q); conditions: FLT3(K663Q); 1 μM
[10] = target: broad panel of kinases (Homo sapiens, UniProt P42336, I800L); conditions: PIK3CA(I800L); 1 μM
[11] = target: broad panel of kinases (Homo sapiens, UniProt P43405); conditions: SYK; 1 μM
[12] = target: broad panel of kinases (Homo sapiens, UniProt P45983); conditions: JNK1; 1 μM
[13] = target: broad panel of kinases (Homo sapiens, UniProt P49759); conditions: CLK1; 1 μM
[14] = target: broad panel of kinases (Homo sapiens, UniProt P54753); conditions: EPHB3; 1 μM
[15] = target: broad panel of kinases (Homo sapiens, UniProt P78362); conditions: SRPK2; 1 μM
[16] = target: broad panel of kinases (Homo sapiens, UniProt P78368); conditions: CSNK1G2; 1 μM
[17] = target: broad panel of kinases (Homo sapiens, UniProt Q13153); conditions: PAK1; 1 μM
[18] = target: broad panel of kinases (Homo sapiens, UniProt Q13464); conditions: ROCK1; 1 μM
[19] = target: broad panel of kinases (Homo sapiens, UniProt Q15208); conditions: NDR1; 1 μM
[20] = target: broad panel of kinases (Homo sapiens, UniProt Q15746); conditions: MYLK; 1 μM
[21] = target: broad panel of kinases (Homo sapiens, UniProt Q16620); conditions: TRKB; 1 μM
[22] = target: broad panel of kinases (Homo sapiens, UniProt Q59H18); conditions: TNNI3K; 1 μM
[23] = target: broad panel of kinases (Homo sapiens, UniProt Q6DT37); conditions: DMPK2; 1 μM
[24] = target: broad panel of kinases (Homo sapiens, UniProt Q6ZN16); conditions: MAP3K15; 1 μM
[25] = target: broad panel of kinases (Homo sapiens, UniProt Q8NFD2); conditions: ANKK1; 1 μM
[26] = target: broad panel of kinases (Homo sapiens, UniProt Q8WTQ7); conditions: GRK7; 1 μM
[27] = target: broad panel of kinases (Homo sapiens, UniProt Q96L34); conditions: MARK4; 1 μM
[28] = target: broad panel of kinases (Homo sapiens, UniProt Q9BRS2); conditions: RIOK1; 1 μM
[29] = target: broad panel of kinases (Homo sapiens, UniProt Q9H0K1); conditions: SIK2; 1 μM
[30] = target: broad panel of kinases (Homo sapiens, UniProt Q9H4B4); conditions: PLK3; 1 μM
[31] = target: broad panel of kinases (Homo sapiens, UniProt Q9HBY8); conditions: SGK2; 1 μM
[32] = target: broad panel of kinases (Homo sapiens, UniProt Q9NRM7); conditions: LATS2; 1 μM
[33] = target: broad panel of kinases (Homo sapiens, UniProt Q9NSY1); conditions: BIKE; 1 μM
[34] = target: broad panel of kinases (Homo sapiens, UniProt Q9UPZ9); conditions: ICK; 1 μM
[35] = target: broad panel of kinases (Homo sapiens, UniProt Q9Y2U5); conditions: MAP3K2; 1 μM
[36] = target: broad panel of kinases (Homo sapiens, UniProt Q9Y5S2); conditions: MRCKB; 1 μM
[37] = target: broad panel of kinases (Homo sapiens, UniProt Q9Y6E0); conditions: MST3; 1 μM

Sequence of broad panel of kinases (Homo sapiens, UniProt P21860) (P21860 20-1342 limits assumed): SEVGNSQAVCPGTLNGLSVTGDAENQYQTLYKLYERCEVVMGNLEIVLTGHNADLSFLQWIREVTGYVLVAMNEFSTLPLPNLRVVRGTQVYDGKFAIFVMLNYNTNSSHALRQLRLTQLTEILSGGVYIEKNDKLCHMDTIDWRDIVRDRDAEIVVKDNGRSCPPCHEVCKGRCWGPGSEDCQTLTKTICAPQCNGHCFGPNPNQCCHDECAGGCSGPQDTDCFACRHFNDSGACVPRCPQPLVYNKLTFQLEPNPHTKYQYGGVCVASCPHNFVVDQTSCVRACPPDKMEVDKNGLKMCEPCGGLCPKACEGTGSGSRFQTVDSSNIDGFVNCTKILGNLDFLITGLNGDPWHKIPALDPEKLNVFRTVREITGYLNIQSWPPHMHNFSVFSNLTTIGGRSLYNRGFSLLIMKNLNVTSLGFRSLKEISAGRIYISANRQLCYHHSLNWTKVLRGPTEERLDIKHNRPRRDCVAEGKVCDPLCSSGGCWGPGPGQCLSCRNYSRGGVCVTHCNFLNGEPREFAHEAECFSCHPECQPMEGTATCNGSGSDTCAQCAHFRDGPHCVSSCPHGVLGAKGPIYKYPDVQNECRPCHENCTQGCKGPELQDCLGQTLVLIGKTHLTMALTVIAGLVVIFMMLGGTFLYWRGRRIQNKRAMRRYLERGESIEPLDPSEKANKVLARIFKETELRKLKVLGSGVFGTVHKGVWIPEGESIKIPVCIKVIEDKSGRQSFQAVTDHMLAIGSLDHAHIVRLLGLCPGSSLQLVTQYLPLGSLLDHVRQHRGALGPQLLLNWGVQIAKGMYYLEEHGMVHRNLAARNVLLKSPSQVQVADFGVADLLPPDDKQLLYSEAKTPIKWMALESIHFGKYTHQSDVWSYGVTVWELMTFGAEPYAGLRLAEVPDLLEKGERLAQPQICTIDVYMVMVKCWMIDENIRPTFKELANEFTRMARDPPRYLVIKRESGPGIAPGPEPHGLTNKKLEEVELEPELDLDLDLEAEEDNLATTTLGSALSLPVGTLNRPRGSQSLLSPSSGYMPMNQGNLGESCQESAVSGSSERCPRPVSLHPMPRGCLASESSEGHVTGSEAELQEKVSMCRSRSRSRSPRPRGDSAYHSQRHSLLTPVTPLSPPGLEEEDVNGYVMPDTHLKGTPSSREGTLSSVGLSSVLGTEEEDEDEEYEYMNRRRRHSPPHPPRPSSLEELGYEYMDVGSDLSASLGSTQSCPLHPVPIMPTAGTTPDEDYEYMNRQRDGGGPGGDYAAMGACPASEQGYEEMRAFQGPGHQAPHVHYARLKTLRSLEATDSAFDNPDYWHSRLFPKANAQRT
Sequence of broad panel of kinases (Homo sapiens, UniProt P04629) (P04629 33-796 limits assumed): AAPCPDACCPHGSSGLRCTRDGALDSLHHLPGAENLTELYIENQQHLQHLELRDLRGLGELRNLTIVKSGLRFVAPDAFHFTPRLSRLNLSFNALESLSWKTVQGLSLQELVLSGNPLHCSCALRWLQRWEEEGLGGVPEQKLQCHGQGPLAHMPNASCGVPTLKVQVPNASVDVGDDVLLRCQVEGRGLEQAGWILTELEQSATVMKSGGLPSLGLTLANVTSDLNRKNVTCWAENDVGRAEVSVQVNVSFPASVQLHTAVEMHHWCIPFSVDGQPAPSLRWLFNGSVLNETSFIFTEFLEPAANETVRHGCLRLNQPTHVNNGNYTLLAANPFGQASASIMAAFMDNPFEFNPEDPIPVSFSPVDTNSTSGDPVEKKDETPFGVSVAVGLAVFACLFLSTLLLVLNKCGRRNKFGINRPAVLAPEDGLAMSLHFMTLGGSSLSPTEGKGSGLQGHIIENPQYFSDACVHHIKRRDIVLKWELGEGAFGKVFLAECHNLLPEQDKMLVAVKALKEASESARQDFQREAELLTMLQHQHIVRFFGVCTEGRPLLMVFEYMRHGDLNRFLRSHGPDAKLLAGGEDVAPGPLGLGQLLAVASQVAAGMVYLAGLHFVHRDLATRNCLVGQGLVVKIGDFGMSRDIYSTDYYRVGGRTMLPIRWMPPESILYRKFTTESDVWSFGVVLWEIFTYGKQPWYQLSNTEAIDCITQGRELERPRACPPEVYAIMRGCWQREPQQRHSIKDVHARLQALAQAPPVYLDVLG
Sequence of broad panel of kinases (Homo sapiens, UniProt P54753) (P54753 34-998 limits assumed): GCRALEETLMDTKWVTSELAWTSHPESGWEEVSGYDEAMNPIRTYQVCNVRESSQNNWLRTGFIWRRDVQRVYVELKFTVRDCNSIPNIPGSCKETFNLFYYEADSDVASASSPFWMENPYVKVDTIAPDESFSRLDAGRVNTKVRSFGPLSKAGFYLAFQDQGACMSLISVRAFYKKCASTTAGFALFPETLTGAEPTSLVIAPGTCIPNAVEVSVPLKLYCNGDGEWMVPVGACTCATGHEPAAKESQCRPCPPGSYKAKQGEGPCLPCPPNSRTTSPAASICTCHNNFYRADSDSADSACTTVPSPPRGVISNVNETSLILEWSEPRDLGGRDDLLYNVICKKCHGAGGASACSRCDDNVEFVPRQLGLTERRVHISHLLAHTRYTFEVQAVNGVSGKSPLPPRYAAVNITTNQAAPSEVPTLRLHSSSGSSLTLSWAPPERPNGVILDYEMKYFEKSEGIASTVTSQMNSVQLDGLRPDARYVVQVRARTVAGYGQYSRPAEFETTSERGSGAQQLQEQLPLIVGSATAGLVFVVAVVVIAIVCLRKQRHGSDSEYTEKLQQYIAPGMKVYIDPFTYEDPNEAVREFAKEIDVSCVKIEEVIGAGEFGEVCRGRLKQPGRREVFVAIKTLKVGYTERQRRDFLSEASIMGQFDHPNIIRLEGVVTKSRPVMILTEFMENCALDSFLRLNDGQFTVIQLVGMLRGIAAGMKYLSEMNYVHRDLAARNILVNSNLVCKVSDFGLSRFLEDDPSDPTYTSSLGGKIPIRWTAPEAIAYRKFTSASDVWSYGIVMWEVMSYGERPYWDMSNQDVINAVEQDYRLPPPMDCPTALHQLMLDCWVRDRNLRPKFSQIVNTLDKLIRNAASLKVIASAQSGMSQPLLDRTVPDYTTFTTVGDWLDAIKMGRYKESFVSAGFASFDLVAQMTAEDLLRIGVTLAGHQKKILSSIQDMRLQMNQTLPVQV
Sequence of broad panel of kinases (Homo sapiens, UniProt Q13464) (Q13464 2-1354 limits assumed): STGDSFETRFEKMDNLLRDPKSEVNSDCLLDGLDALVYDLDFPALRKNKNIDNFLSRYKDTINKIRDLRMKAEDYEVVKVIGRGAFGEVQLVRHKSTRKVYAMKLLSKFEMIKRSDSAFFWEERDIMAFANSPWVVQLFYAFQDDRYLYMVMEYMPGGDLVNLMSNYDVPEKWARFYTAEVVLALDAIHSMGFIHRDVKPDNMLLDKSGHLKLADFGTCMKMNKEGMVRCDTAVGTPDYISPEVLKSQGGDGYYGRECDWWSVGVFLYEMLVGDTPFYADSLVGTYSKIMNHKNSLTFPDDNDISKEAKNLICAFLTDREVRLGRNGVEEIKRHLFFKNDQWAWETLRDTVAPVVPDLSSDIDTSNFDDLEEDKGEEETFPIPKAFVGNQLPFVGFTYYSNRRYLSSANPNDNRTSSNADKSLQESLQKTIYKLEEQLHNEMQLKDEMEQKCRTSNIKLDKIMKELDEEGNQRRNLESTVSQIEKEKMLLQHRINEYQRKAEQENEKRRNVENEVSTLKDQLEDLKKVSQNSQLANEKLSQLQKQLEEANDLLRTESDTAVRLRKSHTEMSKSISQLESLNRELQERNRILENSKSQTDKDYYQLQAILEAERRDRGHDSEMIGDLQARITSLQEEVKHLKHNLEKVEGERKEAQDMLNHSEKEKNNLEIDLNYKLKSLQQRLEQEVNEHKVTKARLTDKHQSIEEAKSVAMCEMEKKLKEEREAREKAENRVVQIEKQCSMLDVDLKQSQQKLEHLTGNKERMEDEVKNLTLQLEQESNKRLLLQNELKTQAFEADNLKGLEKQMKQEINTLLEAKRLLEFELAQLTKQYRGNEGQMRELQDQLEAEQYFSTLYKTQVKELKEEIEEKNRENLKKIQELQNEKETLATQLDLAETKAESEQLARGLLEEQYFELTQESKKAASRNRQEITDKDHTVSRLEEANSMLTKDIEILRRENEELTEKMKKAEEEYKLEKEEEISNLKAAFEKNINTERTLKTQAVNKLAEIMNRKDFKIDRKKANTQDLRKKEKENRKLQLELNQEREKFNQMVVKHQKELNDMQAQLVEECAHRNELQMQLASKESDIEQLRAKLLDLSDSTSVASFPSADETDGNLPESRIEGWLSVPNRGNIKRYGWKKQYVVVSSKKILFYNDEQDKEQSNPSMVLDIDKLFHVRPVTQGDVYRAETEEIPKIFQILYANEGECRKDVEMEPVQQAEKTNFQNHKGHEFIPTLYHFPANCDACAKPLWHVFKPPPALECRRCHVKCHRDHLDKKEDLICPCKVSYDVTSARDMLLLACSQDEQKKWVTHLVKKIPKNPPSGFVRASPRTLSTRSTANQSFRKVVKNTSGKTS
Sequence of broad panel of kinases (Homo sapiens, UniProt P07947) (P07947 2-543 limits assumed): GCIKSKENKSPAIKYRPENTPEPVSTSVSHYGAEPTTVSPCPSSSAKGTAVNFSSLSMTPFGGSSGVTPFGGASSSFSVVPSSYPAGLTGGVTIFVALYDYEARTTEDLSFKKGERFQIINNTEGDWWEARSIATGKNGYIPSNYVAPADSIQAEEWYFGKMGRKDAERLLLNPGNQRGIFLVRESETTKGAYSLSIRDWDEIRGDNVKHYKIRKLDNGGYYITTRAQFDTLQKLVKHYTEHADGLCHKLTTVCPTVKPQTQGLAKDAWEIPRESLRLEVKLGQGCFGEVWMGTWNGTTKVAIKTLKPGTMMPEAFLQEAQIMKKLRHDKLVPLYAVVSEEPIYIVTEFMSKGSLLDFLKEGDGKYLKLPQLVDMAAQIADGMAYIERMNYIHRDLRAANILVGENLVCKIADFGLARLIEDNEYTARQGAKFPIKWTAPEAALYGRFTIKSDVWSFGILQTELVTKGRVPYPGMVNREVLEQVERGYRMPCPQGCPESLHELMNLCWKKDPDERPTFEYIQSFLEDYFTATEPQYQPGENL

Compound	percent of control binding remaining (lower = stronger binding) [1] [%]	percent of control binding remaining (lower = stronger binding) [2] [%]	percent of control binding remaining (lower = stronger binding) [3] [%]	percent of control binding remaining (lower = stronger binding) [4] [%]	percent of control binding remaining (lower = stronger binding) [5] [%]	percent of control binding remaining (lower = stronger binding) [6] [%]	percent of control binding remaining (lower = stronger binding) [7] [%]	percent of control binding remaining (lower = stronger binding) [8] [%]	percent of control binding remaining (lower = stronger binding) [9] [%]	percent of control binding remaining (lower = stronger binding) [10] [%]	percent of control binding remaining (lower = stronger binding) [11] [%]	percent of control binding remaining (lower = stronger binding) [12] [%]	percent of control binding remaining (lower = stronger binding) [13] [%]	percent of control binding remaining (lower = stronger binding) [14] [%]	percent of control binding remaining (lower = stronger binding) [15] [%]	percent of control binding remaining (lower = stronger binding) [16] [%]	percent of control binding remaining (lower = stronger binding) [17] [%]	percent of control binding remaining (lower = stronger binding) [18] [%]	percent of control binding remaining (lower = stronger binding) [19] [%]	percent of control binding remaining (lower = stronger binding) [20] [%]	also measured
C=CC(=O)N1CC[C@H](Nc2nc(CN3CCOCC3)cc(Nc3ncc(C(=O)Nc4c(C)cccc4C)s3)n2)C1 [Example I-2]	86	75	100	100	23	98	0	0.1	96	76	86	94	92	0	92	97	100	88	63	85	percent of control binding remaining (lower = stronger binding) [21]: 94%; percent of control binding remaining (lower = stronger binding) [22]: 16%; percent of control binding remaining (lower = stronger binding) [23]: 51%; percent of control binding remaining (lower = stronger binding) [24]: 92%; percent of control binding remaining (lower = stronger binding) [25]: 94%; percent of control binding remaining (lower = stronger binding) [26]: 97%; percent of control binding remaining (lower = stronger binding) [27]: 91%; percent of control binding remaining (lower = stronger binding) [28]: 90%; percent of control binding remaining (lower = stronger binding) [29]: 92%; percent of control binding remaining (lower = stronger binding) [30]: 99%; percent of control binding remaining (lower = stronger binding) [31]: 72%; percent of control binding remaining (lower = stronger binding) [32]: 100%; percent of control binding remaining (lower = stronger binding) [33]: 100%; percent of control binding remaining (lower = stronger binding) [34]: 86%; percent of control binding remaining (lower = stronger binding) [35]: 96%; percent of control binding remaining (lower = stronger binding) [36]: 89%; percent of control binding remaining (lower = stronger binding) [37]: 100%
C=CC(=O)N1CC[C@H](Nc2nccc(Nc3ncc(C(=O)Nc4c(C)cccc4C)s3)n2)C1 [Example I-3]	47	86	98	100	14	99	0	0.8	100	89	81	81	100	0	64	93	95	89	74	93	percent of control binding remaining (lower = stronger binding) [21]: 92%; percent of control binding remaining (lower = stronger binding) [22]: 44%; percent of control binding remaining (lower = stronger binding) [23]: 66%; percent of control binding remaining (lower = stronger binding) [24]: 100%; percent of control binding remaining (lower = stronger binding) [25]: 100%; percent of control binding remaining (lower = stronger binding) [26]: 96%; percent of control binding remaining (lower = stronger binding) [27]: 80%; percent of control binding remaining (lower = stronger binding) [28]: 82%; percent of control binding remaining (lower = stronger binding) [29]: 98%; percent of control binding remaining (lower = stronger binding) [30]: 97%; percent of control binding remaining (lower = stronger binding) [31]: 76%; percent of control binding remaining (lower = stronger binding) [32]: 92%; percent of control binding remaining (lower = stronger binding) [33]: 90%; percent of control binding remaining (lower = stronger binding) [34]: 87%; percent of control binding remaining (lower = stronger binding) [35]: 98%; percent of control binding remaining (lower = stronger binding) [36]: 100%; percent of control binding remaining (lower = stronger binding) [37]: 100%
